Test results published in US20180245061A1, “Modified Heterocyclase” (THE UNIVERSITY COURT OF THE UNIVERSITY OF ABERDEEN, priority 2014, published 2018).
pKd: −log10 of the molar value.

Assays:
Set-up in all cases: species or system Lyngbya sp. PCC 8106
[1] = target: Lyngbya sp. LynD heterocyclase (SEQ ID NO: 1) variant R636A; experiment: ITC nucleotide binding (AMP) to LynD R636A; settings: 25° C., pH 7.4, 5 mM MgCl2
Protocol: (§1) Codon optimized full-length LynD (Lyngbya sp. PCC 8106) with an N-terminal TEV protease-cleavable His6-tag was purchased from DNA2.0 in the pJexpress411 plasmid. The protein was expressed in Escherichia coli BL21 (DE3) grown on auto-induction medium {Studier, 2005, Protein expression and purification, 41, 207-234} for 48 h at 20° C. Cells were harvested by centrifugation at 4,000×g, 4° C. for 15 min and re-suspended in lysis buffer (500 mM NaCl, 20 mM Tris pH 8.0, 20 mM imidazole and 3 mM β-mercaptoethanol (BME)) with the addition of complete EDTA-free protease inhibitor tablets (Roche) and 0.4 mg DNase g^−1 wet cells (Sigma). Cells were lysed by passage through a cell disruptor at 30 kPSI (Constant Systems Ltd) and the lysate was cleared by centrifugation at 40,000×g, 4° C. for 20 min. The cleared lysate was applied to a Nickel Sepharose 6 Fast Flow (GE Healthcare) column pre-washed with lysis buffer and protein eluted with 250 mM imidazole. The protein was then passed over a desalting column (Desalt 16/10, GE Healthcare) in 100 mM NaCl, 20 mM Tris pH 8.0, 20 mM imidazole, 3 mM BME. Tobacco etch virus (TEV) protease was added to the protein at a mass-to-mass ratio of 1:10 and the protein digested for 2 h at 20° C. to remove the Hiss-tag. However, removal of the Hiss-tag was not essential for activity and so less vigorous methods for purification may also be used. […]

[2] = target: Lyngbya sp. LynD heterocyclase (SEQ ID NO: 1) variant K409A; experiment: ITC nucleotide binding (ATP/AMP) to LynD K409A; settings: 25° C., pH 7.4, 5 mM MgCl2
Protocol: as §1

[3] = target: Lyngbya sp. LynD heterocyclase (SEQ ID NO: 1) variant R636E; experiment: ITC nucleotide binding (ATP/AMP) to LynD R636E; settings: 25° C., pH 7.4, 5 mM MgCl2
Protocol: as §1

[4] = target: Lyngbya sp. LynD heterocyclase (SEQ ID NO: 1) variant E423R; experiment: ITC nucleotide binding (ATP/AMP) to LynD E423R; settings: 25° C., pH 7.4, 5 mM MgCl2
Protocol: as §1

[5] = target: Lyngbya sp. LynD heterocyclase (SEQ ID NO: 1) variant R427E; experiment: ITC nucleotide binding (ATP/AMP) to LynD R427E; settings: 25° C., pH 7.4, 5 mM MgCl2
Protocol: as §1

[6] = target: Lyngbya sp. LynD heterocyclase, wild type, SEQ ID NO: 1; experiment: ITC nucleotide binding (ATP/AMP) to LynD; settings: 25° C., pH 7.4, 5 mM MgCl2, one-site model, stoichiometry set to 1, read-out: Nucleotide KD (AMP)
Protocol: as §1

[7] = target: Lyngbya sp. LynD heterocyclase (SEQ ID NO: 1) variant K409E; experiment: ITC nucleotide binding (ATP/AMP) to LynD K409E; settings: 25° C., pH 7.4, 5 mM MgCl2
Protocol: as §1

Question: `Nc1ncnc2c1ncn2[C@@H]1O[C@H](COP(=O)(O)O)[C@@H](O)[C@H]1O` [AMP] was tested. Which “Nucleotide KD (AMP)” value [1] did it give?
Answer: no binding

Question: What about the “Nucleotide KD (AMP)” value [2] of the same compound?
Answer: no binding

Question: And the “Nucleotide KD (AMP)” value [3]?
Answer: no binding

Question: What about the pKd [4] of the same compound?
Answer: 5.25

Question: And the pKd [5]?
Answer: 4.64

Question: What about the pKd [6] of the same compound?
Answer: 4.84

Question: What about the “Nucleotide KD (AMP)” value [7] of the same compound?
Answer: no binding
